In patent US20250388604A1, “Compounds and Their Use as PDE4 Activators” (Mironid Limited, priority 2022, published 2025):

Each molecule was assayed on m-IMCD3 cells (assay: Inhibition of PGE2-stimulated in vitro cyst formation in m-IMCD3 cells). Settings: 3 μM; mean cyst area, 100% for (DMSO + PGE2) and 0% for DMSO control; 6 days of culture.
Format: cell-based, mouse
Summary of the method: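 Mean cyst area after 6 days, expressed relative to DMSO+PGE2 (100%) and DMSO alone (0%), from z-stack images. Mouse m-IMCD3 spheroids grew in collagen I/Matrigel gels and received PGE2 (100 nM final) with test compound (0.1% DMSO) starting 18–24 h post-plating, media refreshed at day 2 or 3.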

SMILES	% Cyst area after incubation with 3 μM test compound [%]
CC(C(=O)N1CCc2nc(N3C4CCC3CNC4)sc2C1)C(C)(C)C (single isomer, unassigned) [Example 158, 1-(2-(3,8-diazabicyclo[3.2.1]octan-8-yl)-6,7-dihydrothiazolo[5,4-c]pyridin-5(4H)-yl)-2,3,3-trimethylbutan-1-one]	7
CC(C(=O)N1CCc2nc(N3C4CCC3CNC4)sc2C1)C(C)(C)C (single isomer, unassigned) [Example 159, 1-(2-(3,8-diazabicyclo[3.2.1]octan-8-yl)-6,7-dihydrothiazolo[5,4-c]pyridin-5(4H)-yl)-2,3,3-trimethylbutan-1-one]	0

Same assay, conditions: Mus musculus, mIMCD3, 144 h, 3 μM; mean cyst area, 100% for (DMSO + PGE2) and 0% for DMSO control; 6 days of culture; read-out: % Cyst area after incubation with 3 μM test compound

SMILES	activity at 3 µM [%]
CC(O)(C(=O)N1CCc2nc(N3C4CCC3CNC4)sc2C1)C1CCCC1 (single isomer, unassigned) [Example 254, 1-(2-(3,8-diazabicyclo[3.2.1]octan-8-yl)-6,7-dihydrothiazolo[5,4-c]pyridin-5(4H)-yl)-2-cyclopentyl-2-hydroxypropan-1-one]	-5
O=C([C@H](O)C1CCCCC1)N1CCc2nc(N3C4CCC3CNC4)sc2C1 [Example 177, (2R)-1-(2-(3,8-diazabicyclo[3.2.1]octan-8-yl)-6,7-dihydrothiazolo[5,4-c]pyridin-5(4H)-yl)-2-cyclohexyl-2-hydroxyethan-1-one]	-2
O=C(c1cc2ccccc2o1)N1CCc2nc(N3C4CCC3CNC4)sc2C1 [Example 185, (2-(3,8-diazabicyclo[3.2.1]octan-8-yl)-6,7-dihydrothiazolo[5,4-c]pyridin-5(4H)-yl)(benzofuran-2-yl)methanone]	-2
N#Cc1ccc(C(=O)N2CCc3nc(N4C5CCC4CNC5)sc3C2)cc1 [Example 239, 4-(2-(3,8-diazabicyclo[3.2.1]octan-8-yl)-4,5,6,7-tetrahydrothiazolo[5,4-c]pyridine-5-carbonyl)benzonitrile]	-2
CC(C)c1ccccc1C(=O)N1CCc2nc(N3C4CCC3CNC4)sc2C1 [Example 215, (2-(3,8-diazabicyclo[3.2.1]octan-8-yl)-6,7-dihydrothiazolo[5,4-c]pyridin-5(4H)-yl)(2-isopropylphenyl)methanone]	7
O=C(CC1CCCC1)N1CCc2nc(N3CC4CCC3CN4)sc2C1 (centres unmarked) [Example 278, 1-(2-(2,5-diazabicyclo[2.2.2]octan-2-yl)-6,7-dihydrothiazolo[5,4-c]pyridin-5(4H)-yl)-2-cyclopentylethan-1-one]	2
Cc1ccc(C(=O)N2CCc3nc(N4C5CCC4CNC5)sc3C2)c(C)c1 [Example 225, (2-(3,8-diazabicyclo[3.2.1]octan-8-yl)-6,7-dihydrothiazolo[5,4-c]pyridin-5(4H)-yl)(2,4-dimethylphenyl)methanone]	-1
CC(C)(CC(=O)N1CCc2nc(N3C4CCC3CNC4)sc2C1)C(F)F [Example 175, 1-(2-(3,8-diazabicyclo[3.2.1]octan-8-yl)-6,7-dihydrothiazolo[5,4-c]pyridin-5(4H)-yl)-4,4-difluoro-3,3-dimethylbutan-1-one]	-5
O=S(=O)(Cc1ccc(F)cc1)N1CCc2nc(N3CCNCC3)sc2C1 [Example 287, 5-((4-fluorobenzyl)sulfonyl)-2-(piperazin-1-yl)-4,5,6,7-tetrahydrothiazolo[5,4-c]pyridine]	-3
O=C(Oc1ccccc1)N1CCc2nc(N3C4CCC3CNC4)sc2C1 [Example 247, phenyl 2-(3,8-diazabicyclo[3.2.1]octan-8-yl)-6,7-dihydrothiazolo[5,4-c]pyridine-5(4H)-carboxylate]	18
O=C(c1ccc(F)cc1F)N1CCc2nc(N3C4CCC3CNC4)sc2C1 [Example 212, (2-(3,8-diazabicyclo[3.2.1]octan-8-yl)-6,7-dihydrothiazolo[5,4-c]pyridin-5(4H)-yl)(2,4-difluorophenyl)methanone]	0
O=C(c1ccccc1F)N1CCc2nc(N3C4CCC3CNC4)sc2C1 [Example 209, (2-(3,8-diazabicyclo[3.2.1]octan-8-yl)-6,7-dihydrothiazolo[5,4-c]pyridin-5(4H)-yl)(2-fluorophenyl)methanone]	-5
CCN1CC2CCC(C1)N2c1nc2c(s1)CN(C(=O)N[C@@H]1CCOc3ccccc31)CC2 [Example 295, N—((R)-chroman-4-yl)-2-(3-ethyl-3,8-diazabicyclo[3.2.1]octan-8-yl)-6,7-dihydrothiazolo[5,4-c]pyridine-5(4H)-carboxamide]	-4
Cc1cc(F)ncc1C(=O)N1CCc2nc(N3C4CCC3CNC4)sc2C1 [Example 242, (2-(3,8-diazabicyclo[3.2.1]octan-8-yl)-6,7-dihydrothiazolo[5,4-c]pyridin-5(4H)-yl)(6-fluoro-4-methylpyridin-3-yl)methanone]	29
O=C(COc1ccccc1C(F)F)N1CCc2nc(N3C4CCC3CNC4)sc2C1 [Example 173, 1-(2-(3,8-diazabicyclo[3.2.1]octan-8-yl)-6,7-dihydrothiazolo[5,4-c]pyridin-5(4H)-yl)-2-(2-(difluoromethyl)phenoxy)ethan-1-one]	-2
COc1cc(F)cc(C#N)c1OCC(=O)N1CCc2nc(N3C4CCC3CNC4)sc2C1 [Example 253, 2-(2-(2-(3,8-diazabicyclo[3.2.1]octan-8-yl)-6,7-dihydrothiazolo[5,4-c]pyridin-5(4H)-yl)-2-oxoethoxy)-5-fluoro-3-methoxybenzonitrile]	-4
O=C(c1ccccc1OC(F)F)N1CCc2nc(N3C4CCC3CNC4)sc2C1 [Example 203, (2-(3,8-diazabicyclo[3.2.1]octan-8-yl)-6,7-dihydrothiazolo[5,4-c]pyridin-5(4H)-yl)(2-(difluoromethoxy)phenyl)methanone]	-1
O=C(c1ccc(C(F)F)nc1)N1CCc2nc(N3C4CCC3CNC4)sc2C1 [Example 243, (2-(3,8-diazabicyclo[3.2.1]octan-8-yl)-6,7-dihydrothiazolo[5,4-c]pyridin-5(4H)-yl)(6-(difluoromethyl)pyridin-3-yl)methanone]	10

Same assay, conditions: Mus musculus, mIMCD3, 144 h, 10 μM; mean cyst area, 100% for (DMSO + PGE2) and 0% for DMSO control; 6 days of culture; read-out: % Cyst area after incubation with 10 μM test compound

SMILES	activity at 10 µM [%]
O=C(N1CCc2nc(N3C4CCC3CNC4)sc2C1)C1(Oc2ccccc2)CC1 [Example 31, (2-(3,8-diazabicyclo[3.2.1]octan-8-yl)-6,7-dihydrothiazolo[5,4-c]pyridin-5(4H)-yl)(1-phenoxycyclopropyl)methanone]	7
O=C(CC1CCC(F)(F)CC1)N1CCn2nc(N3C4CCC3CNC4)nc2C1 [Example 97, 1-(2-(3,8-diazabicyclo[3.2.1]octan-8-yl)-5,6-dihydro-[1,2,4]triazolo[1,5-a]pyrazin-7 (8H)-yl)-2-(4,4-difluorocyclohexyl)ethan-1-one]	6
CC1(CC(=O)N2CCc3nc(N4C5CCC4CNC5)sc3C2)CCC1 [Example 130, 1-(2-(3,8-diazabicyclo[3.2.1]octan-8-yl)-6,7-dihydrothiazolo[5,4-c]pyridin-5(4H)-yl)-2-(1-methylcyclobutyl)ethan-1-one]	-5
COCC1(CC(=O)N2CCc3nc(N4C5CCC4CNC5)sc3C2)CCCC1 [Example 135, 1-(2-(3,8-diazabicyclo[3.2.1]octan-8-yl)-6,7-dihydrothiazolo[5,4-c]pyridin-5(4H)-yl)-2-(1-(methoxymethyl)cyclopentyl)ethan-1-one]	-6
CC1(C)CCC(C(=O)N2CCc3nc(N4C5CCC4CNC5)sc3C2)C1 (centres unmarked) [Example 38, (2-(3,8-diazabicyclo[3.2.1]octan-8-yl)-6,7-dihydrothiazolo[5,4-c]pyridin-5(4H)-yl)(3,3-dimethylcyclopentyl)methanone]	8
O=C(CC1CCC(F)(F)CC1)N1CCn2nc(N3C4CCC3CNC4)cc2C1 [Example 71, 1-(2-(3,8-diazabicyclo[3.2.1]octan-8-yl)-6,7-dihydropyrazolo[1,5-a]pyrazin-5(4H)-yl)-2-(4,4-difluorocyclohexyl)ethan-1-one]	-3
COc1cc(F)ccc1OCC(=O)N1CCc2nc(N3C4CCC3CNC4)sc2C1 [Example 143, 1-(2-(3,8-diazabicyclo[3.2.1]octan-8-yl)-6,7-dihydrothiazolo[5,4-c]pyridin-5(4H)-yl)-2-(4-fluoro-2-methoxyphenoxy)ethan-1-one]	2
O=C(CC1CCOCC1)N1CCc2nc(N3C4CCC3CNC4)sc2C1 [Example 3, 1-(2-(3,8-diazabicyclo[3.2.1]octan-8-yl)-6,7-dihydrothiazolo[5,4-c]pyridin-5(4H)-yl)-2-(tetrahydro-2H-pyran-4-yl)ethan-1-one]	13
O=C(CC(F)(F)F)N1CCc2nc(N3C4CCC3CNC4)sc2C1 [Example 26, 1-(2-(3,8-diazabicyclo[3.2.1]octan-8-yl)-6,7-dihydrothiazolo[5,4-c]pyridin-5(4H)-yl)-3,3,3-trifluoropropan-1-one]	1
CN1CC2CCC(C1)N2c1nc2c(s1)CN(C(=O)CC1CCC(F)(F)CC1)C2 [Example 84, 2-(4,4-difluorocyclohexyl)-1-(2-(3-methyl-3,8-diazabicyclo[3.2.1]octan-8-yl)-4,6-dihydro-5H-pyrrolo[3,4-d]thiazol-5-yl)ethan-1-one]	1
O=C(C(F)C1CCCC1)N1CCc2nc(N3C4CCC3CNC4)sc2C1 (centres unmarked) [Example 34, 1-(2-(3,8-diazabicyclo[3.2.1]octan-8-yl)-6,7-dihydrothiazolo[5,4-c]pyridin-5(4H)-yl)-2-cyclopentyl-2-fluoroethan-1-one]	-2
O=C(CC1CCCC1)N1CCc2nc(N3CCNC[C@H]3CO)sc2C1 [Example 284, (S)-2-cyclopentyl-1-(2-(2-(hydroxymethyl)piperazin-1-yl)-6,7-dihydrothiazolo[5,4-c]pyridin-5(4H)-yl)ethan-1-one]	19
